Earlier results on 4 compounds are cited in publication PMC11327090, “The Nectin family ligands, PVRL2 and PVR, in cancer immunology and immunotherapy” (Frontiers in Immunology, 2024).

The test system of series [1] is non-small cell lung cancer. More on the design: method as in PMID 35576957. The settings on record: phase II trial.
The test system of series [2] is Myeloma cells. Further details: method as in PMID 19098271. The note with it: treated myeloma cells.
Series [3] has as its system breast cancer cell lines. More on the design: method as in PMID 30039180. The note with it: in vitro.

For the compound “placebo plus atezolizumab: anti-PD-L1 antibody atezolizumab with placebo, comparator arm of the phase II trial”, the objective response rate in series [1] is 16.2%. In series [1] (95% CI in brackets), the Median progression-free survival is 3.6 months.
With `N[C@@H](Cc1ccc(N(CCCl)CCCl)cc1)C(=O)O` [melphalan], the “PVRL2 and PVR expression” value in series [2] is “upregulate PVRL2 and PVR expression”.
Regarding `CC(C)C[C@H](NC(=O)[C@H](Cc1ccccc1)NC(=O)c1cnccn1)B(O)O` [bortezomib], in series [2], the “PVRL2 and PVR expression” value was “upregulate PVRL2 and PVR expression”.
As for `COc1cccc2c1C(=O)c1c(O)c3c(c(O)c1C2=O)C[C@@](O)(C(=O)CO)C[C@@H]3O[C@H]1C[C@H](N)[C@H](O)[C@H](C)O1` [Adriamycin], the PVR expression result in series [3] is “increases PVR expression”. The “PVRL2 and PVR expression” value in series [2] is “upregulate PVRL2 and PVR expression”.
